Reference: patent publication US8604075B2, “Methods and compositions for improving cognitive function” (The Johns Hopkins University, priority 2008, dated 2013)

Tests used:
[1] = system: Age-Impaired (AI) Long-Evans rats; test: Morris Water Maze (MWM) retention trial, spatial memory of aged-impaired rats; format: in vivo, rat; settings: retention trial 24 hours after last training trial
Description: FIG. 2 depicts the effects of administering levetiracetam on the spatial memory retention of six aged-impaired rats (AI) in a Morris Water Maze (MWM) test. Three treatment conditions were employed: vehicle control, levetiracetam (5 mg/kg/day) and levetiracetam (10 mg/kg/day). The AI rats were trained for two consecutive days, with a one-time treatment prior to the training trials per day. 24 hours later, the AI rats were tested. The time the AI rats, 24 hours after treatment with the different conditions and two days of training, spent swimming in the target quadrant or the target annulus in a memory retention trial is used as a measure of spatial memory retention. The target quadrant refers to the quadrant of the maze (which is a circular pool) where the escape platform is placed during the training trials. The target annulus refers to the exact location of the escape platform during the training trials.
The MWM apparatus consists of a large, circular pool (diameter 1.83 m; height, 0.58 m) filled with water (27° C.) that is made opaque through the addition of non-toxic pigment or some other substance. In the typical “hidden platform” version of the test, rats are trained to find a camouflaged white escape platform (height, 34.5 cm) that is positioned in the center of one quadrant of the maze about 1.0 cm below the water surface. This platform can be retracted to the bottom of the tank or raised to its normal position from outside the maze during behavioral testing. The location of the platform remains constant from trial to trial. […] The behavior of a rat in the pool is recorded by a camera that is suspended 2.5 m above the center of the pool. […]
The MWM protocol is optimized for sensitivity to the effects of aging on cognition and for measures of reliable individual differences within the aged population of out-bred Long-Evans rats (Gallagher et al. Behav. Neurosci. 107:618-626, (1993)). […] At the completion of the protocol using the hidden platform, rats are assessed for cue learning using the visible platform. […]

aged-impaired (AI) rats = test: Radial Arm Maze (RAM) task with one-hour delay, spatial memory retention of aged-impaired rats; format: in vivo, rat; settings: 30-40 minutes before trial, ten AI rats
Description: FIG. 3 depicts the effects of administering levetiracetam on the spatial memory retention of ten aged-impaired rats (AI) in an eight-arm Radial Arm Maze (RAM) test. Six treatment conditions were employed: vehicle control, levetiracetam (1.25 mg/kg/day), levetiracetam (2.5 mg/kg/day), levetiracetam (5 mg/kg/day), levetiracetam (10 mg/kg/day) and levetiracetam (20 mg/kg/day). In the RAM task used, there was a one-hour delay between presentation of a subset of arms (5 arms available and 3 arms blocked) and completion of the eight-arm win-shift task (eight arms available). Rats were pre-treated 30-40 minutes before daily trials with a one-time drug/control treatment. The number of errors made by the rats after the delay was used as a measure of spatial memory retention. Errors were defined as instances when rats entered an arm from which food had already been retrieved in the pre-delay component of the trial or when rats re-visited an arm in the post-delay session that had already been visited. […]
The effects of levetiracetam on the spatial memory retention of aged-impaired (AI) rats were assessed in a Radial Arm Maze (RAM) behavioral task using vehicle control and five different dosage levels of levetiracetam (1.25 mg/kg/day, 2.5 mg/kg/day, 5 mg/kg/day, 10 mg/kg/day and 20 mg/kg/day). […]

[2] = system: memory-impaired aged rats; settings: chronic subcutaneous administration, cited from earlier work
[3] = 100 mg/kg/day, chronic subcutaneous administration; cited from earlier work

Row | Compound | time spent in the target quadrant, performance compared with vehicle ([1]; 5 mg/kg/day i.p.) | time spent in the target annulus ([1]; 10 mg/kg/day i.p.) | time spent in the target quadrant ([1]; 10 mg/kg/day i.p., vehicle approximately 25%) | average no. of errors ± standard error of the mean (SEM) (aged-impaired (AI) rats; 5 mg/kg/day i.p., vehicle 2.00±0.42, p=0.057) | average no. of errors ± SEM (aged-impaired (AI) rats; 10 mg/kg/day i.p., vehicle 2.00±0.42, p=0.042) | treatment of age-related cognitive impairment ([2]; 50 mg/kg/day) | performance in a memory test ([2]; 100 mg/kg/day) | blood total valproate level [3] [μg/ml plasma]
1 | CC[C@@H](C(N)=O)N1CCCC1=O [levetiracetam, (2S)-2-(2-oxopyrrolidin-1-yl) butanamide] | did not significantly improve | effectivness of the 10 mg/kg/day levetiracetam treatment was also seen | approximately 35 % of total swimming time | 0.75±0.32 | 0.80±0.27 | – | – | –
2 | CCCC(CCC)C(=O)O [sodium valproate, 2-propylpentanoate] | – | – | – | – | – | not effective | significantly improved | 10
